The structures appear in SMILES notation. Read-outs that look alike come from different tables or passages of the source.

Broadly, the IC50 is the concentration that inhibits the measured activity by half.

Common to all, as to format: cell-based
The target of one test is T1, human TLR9 (Homo sapiens, UniProt Q9NR96).
T1 construct: host or cells: HEK-Blue cells (HEK293-derived reporter line)
T1 sequence (Q9NR96 26-1032): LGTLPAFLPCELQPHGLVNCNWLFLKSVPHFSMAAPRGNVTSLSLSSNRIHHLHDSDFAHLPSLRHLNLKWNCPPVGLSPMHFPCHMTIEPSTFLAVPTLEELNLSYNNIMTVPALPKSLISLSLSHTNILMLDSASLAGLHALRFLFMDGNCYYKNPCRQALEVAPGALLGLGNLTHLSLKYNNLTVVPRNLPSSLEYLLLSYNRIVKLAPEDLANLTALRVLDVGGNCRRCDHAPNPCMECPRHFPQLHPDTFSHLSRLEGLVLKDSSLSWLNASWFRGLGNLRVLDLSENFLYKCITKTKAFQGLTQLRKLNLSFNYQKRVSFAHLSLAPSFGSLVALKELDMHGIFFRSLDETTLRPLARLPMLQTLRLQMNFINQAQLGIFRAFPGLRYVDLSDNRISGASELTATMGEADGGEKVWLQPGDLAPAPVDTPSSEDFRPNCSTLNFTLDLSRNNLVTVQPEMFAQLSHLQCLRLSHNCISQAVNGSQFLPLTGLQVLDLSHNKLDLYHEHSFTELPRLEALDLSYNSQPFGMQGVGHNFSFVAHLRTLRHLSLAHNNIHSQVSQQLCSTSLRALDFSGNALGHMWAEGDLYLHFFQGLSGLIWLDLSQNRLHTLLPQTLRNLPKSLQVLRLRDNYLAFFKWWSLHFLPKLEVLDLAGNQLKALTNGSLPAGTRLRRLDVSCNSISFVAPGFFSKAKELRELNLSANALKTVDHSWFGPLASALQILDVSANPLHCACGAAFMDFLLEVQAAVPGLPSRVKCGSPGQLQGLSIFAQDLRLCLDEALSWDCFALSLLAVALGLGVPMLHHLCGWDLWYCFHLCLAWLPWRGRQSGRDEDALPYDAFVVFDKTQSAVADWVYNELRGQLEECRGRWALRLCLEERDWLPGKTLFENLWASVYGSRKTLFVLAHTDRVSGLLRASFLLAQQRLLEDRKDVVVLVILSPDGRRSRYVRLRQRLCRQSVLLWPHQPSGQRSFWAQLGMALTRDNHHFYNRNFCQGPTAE
Description: TLR9 inhibition reporter assay (HEK-Blue cells, secreted embryonic alkaline phosphatase reporter). The method, boiled down: (§1)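 HEK-Blue cells expressing human TLR7, TLR8 or TLR9 with an NF-κB/AP-1-driven SEAP reporter were pretreated with compound (0.05 nM–50 μM final) for 30 min at room temperature. Agonists were gardiquimod 7.5 μM for TLR7, R848 15.9 μM for TLR8 and ODN2006 5 nM for TLR9. SEAP was read after 22 h at 37 °C, and inhibition was calculated relative to agonist-plus-DMSO and known-inhibitor controls.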
Background: A reporter such as luciferase makes a cellular process visible.

The target in the next test is T2, human TLR7 (Homo sapiens, UniProt Q9NYK1).
T2 construct: host or cells: HEK-Blue cells (HEK293-derived reporter line)
T2 sequence (Q9NYK1 27-1049): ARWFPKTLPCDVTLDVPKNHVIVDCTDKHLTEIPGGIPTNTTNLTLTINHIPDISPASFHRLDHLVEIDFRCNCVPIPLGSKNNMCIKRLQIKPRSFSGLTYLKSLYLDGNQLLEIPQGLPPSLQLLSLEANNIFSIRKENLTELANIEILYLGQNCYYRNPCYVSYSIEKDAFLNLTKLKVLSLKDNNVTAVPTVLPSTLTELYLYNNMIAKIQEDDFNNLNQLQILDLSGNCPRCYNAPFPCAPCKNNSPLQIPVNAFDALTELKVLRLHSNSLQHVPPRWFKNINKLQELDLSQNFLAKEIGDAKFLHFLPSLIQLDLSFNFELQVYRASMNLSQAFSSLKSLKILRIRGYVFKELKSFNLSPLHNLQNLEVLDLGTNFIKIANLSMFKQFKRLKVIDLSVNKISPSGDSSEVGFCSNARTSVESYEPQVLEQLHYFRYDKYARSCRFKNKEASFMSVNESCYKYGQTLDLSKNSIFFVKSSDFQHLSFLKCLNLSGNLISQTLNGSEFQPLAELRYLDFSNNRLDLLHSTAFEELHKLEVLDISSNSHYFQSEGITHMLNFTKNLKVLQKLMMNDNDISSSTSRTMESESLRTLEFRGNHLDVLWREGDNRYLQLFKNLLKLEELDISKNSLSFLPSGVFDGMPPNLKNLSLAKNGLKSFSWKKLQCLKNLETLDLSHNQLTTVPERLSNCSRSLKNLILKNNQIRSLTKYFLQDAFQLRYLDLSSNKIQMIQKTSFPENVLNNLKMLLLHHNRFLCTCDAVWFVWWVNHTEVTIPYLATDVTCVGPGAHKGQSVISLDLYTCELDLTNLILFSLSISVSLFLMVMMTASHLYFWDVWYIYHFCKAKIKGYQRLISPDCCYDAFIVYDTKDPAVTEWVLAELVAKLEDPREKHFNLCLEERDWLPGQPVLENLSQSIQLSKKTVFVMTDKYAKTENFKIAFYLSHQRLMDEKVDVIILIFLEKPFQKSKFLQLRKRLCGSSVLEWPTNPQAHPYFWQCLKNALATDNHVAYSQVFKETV
The test can be described thus: TLR7 inhibition reporter assay (HEK-Blue cells, secreted embryonic alkaline phosphatase reporter). Conditions: HEK-Blue cells overexpressing human TLR7, stimulated with gardiquimod 7.5 μM; read-out: TLR 7 IC50. The method, boiled down:
as §1

The target of the next test is T3, human TLR8 (Homo sapiens, UniProt Q9NR97).
T3 construct: host or cells: HEK-Blue cells (HEK293-derived reporter line)
T3 sequence (Q9NR97 27-1041): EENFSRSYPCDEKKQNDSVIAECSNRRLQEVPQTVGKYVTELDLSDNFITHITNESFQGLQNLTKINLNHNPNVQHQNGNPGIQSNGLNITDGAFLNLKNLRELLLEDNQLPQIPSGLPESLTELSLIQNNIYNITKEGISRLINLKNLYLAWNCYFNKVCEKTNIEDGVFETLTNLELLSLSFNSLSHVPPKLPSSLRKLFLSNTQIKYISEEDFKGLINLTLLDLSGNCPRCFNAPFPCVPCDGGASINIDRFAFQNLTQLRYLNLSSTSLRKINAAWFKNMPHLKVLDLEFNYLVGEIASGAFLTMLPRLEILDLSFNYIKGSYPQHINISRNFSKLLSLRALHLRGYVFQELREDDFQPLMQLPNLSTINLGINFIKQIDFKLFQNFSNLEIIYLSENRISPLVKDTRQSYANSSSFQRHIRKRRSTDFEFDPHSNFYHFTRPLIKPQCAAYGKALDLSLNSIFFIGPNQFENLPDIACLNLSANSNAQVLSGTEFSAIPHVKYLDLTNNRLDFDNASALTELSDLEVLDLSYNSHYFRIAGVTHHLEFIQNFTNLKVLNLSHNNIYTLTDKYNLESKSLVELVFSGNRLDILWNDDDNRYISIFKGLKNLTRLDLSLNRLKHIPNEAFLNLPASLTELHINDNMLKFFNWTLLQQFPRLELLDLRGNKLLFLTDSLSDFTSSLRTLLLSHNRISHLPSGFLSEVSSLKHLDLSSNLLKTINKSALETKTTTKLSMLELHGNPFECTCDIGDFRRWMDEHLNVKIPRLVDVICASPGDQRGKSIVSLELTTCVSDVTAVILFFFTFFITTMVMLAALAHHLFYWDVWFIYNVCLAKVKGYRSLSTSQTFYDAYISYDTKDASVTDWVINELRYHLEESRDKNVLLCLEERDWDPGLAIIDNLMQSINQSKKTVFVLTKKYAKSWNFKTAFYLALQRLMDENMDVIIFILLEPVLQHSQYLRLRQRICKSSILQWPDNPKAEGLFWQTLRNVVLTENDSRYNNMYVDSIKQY
Description: TLR8 inhibition reporter assay (HEK-Blue cells, secreted embryonic alkaline phosphatase reporter). Conditions: HEK-Blue cells overexpressing human TLR8, stimulated with R848 15.9 μM; read-out: TLR 8 IC50. The method, boiled down:
as §1

Where [1] appears, read: HEK-Blue cells overexpressing human TLR9, stimulated with ODN2006 5 nM, read-out: TLR 9 IC50.
Setting [2] is: HEK-Blue cells overexpressing human TLR9, stimulated with ODN2006 5 nM, 22 hour incubation, reporter readout.
The mark [3] stands for this setting: HEK-Blue human TLR9 reporter cells.

As to `Cn1c(-c2ccc(S(C)(=O)=O)cc2)nc2cc(C3CCN(C4CCN(C5CCC5)CC4)CC3)c(F)cc21` [Example 243, 5-(1′-cyclobutyl-[1,4′-bipiperidin]-4-yl)-6-fluoro-1-methyl-2-(4-(methylsulfonyl)phenyl)-1H-benzo[d]imidazole], the IC50 on human TLR9 is 940 nM; on human TLR9 (setting [1]) it was 943 nM; on human TLR7 it was greater than 50 µM; at human TLR8, greater than 50 µM.

With `CC(C)N1C2CCC1CC(N1CCC(c3ccc4nc(-c5ccc(S(C)(=O)=O)cc5)[nH]c4c3F)CC1)C2` (single isomer, unassigned) [Example 94, 7-fluoro-6-(1-(8-isopropyl-8-azabicyclo[3.2.1]octan-3-yl)piperidin-4-yl)-2-(4-(methylsulfonyl)phenyl)-1H-benzo[d]imidazole], the half-inhibitory concentration (IC50) against human TLR9 (setting [2]) is 73 nM; on human TLR7, greater than 50 µM; at human TLR8, greater than 50 µM.

For `Cn1c(-c2ccc(S(C)(=O)=O)cc2)nc2cc(C3CCN(C4CCN(C5CCOCC5)CC4)CC3)c(F)cc21` [Example 245, 6-fluoro-1-methyl-2-(4-(methylsulfonyl)phenyl)-5-(1′-(tetrahydro-2H-pyran-4-yl)-[1,4′-bipiperidin]-4-yl)-1H-benzo[d]imidazole], the IC50 at human TLR9 is 1100 nM; on human TLR9 (setting [1]) it was 1060 nM; on human TLR7, greater than 50 µM; at human TLR8, greater than 50 µM.

For `Cc1cc(-c2ccc(N3CCC(N(C)C)CC3)cc2)cc2c1nc(-c1ccc(S(C)(=O)=O)cc1)n2C` [Example 368, 1-(4-(1,4-dimethyl-2-(4-(methylsulfonyl)phenyl)-1H-benzo[d]imidazol-6-yl)phenyl)-N,N-dimethylpiperidin-4-amine], the IC50 was 410 nM on human TLR9 (setting [2]), 414 nM at human TLR9 (setting [1]), 1.4 µM on human TLR7 and 1.7 µM on human TLR8.

For `Cn1c(-c2ccc(S(C)(=O)=O)cc2)nc2c(F)cc(C3CCN(C4CCCN(C5CCOCC5)CC4)CC3)cc21` (stereo not drawn) [Example 300, 4-fluoro-1-methyl-2-(4-(methylsulfonyl)phenyl)-6-(1-(1-(tetrahydro-2H-pyran-4-yl)azepan-4-yl)piperidin-4-yl)-1H-benzo[d]imidazole], the IC50 at human TLR9 (setting [1]) was 20 nM; against human TLR9 (setting [3]) it was 20 nM; at human TLR7, 2.9 µM; on human TLR8 it was greater than 50 µM.

As to `COCCN1CCCC(N2CCC(c3cc(C)c4nc(-c5ccc(S(C)(=O)=O)cc5)n(C)c4c3)CC2)CC1` (single isomer, unassigned) [Example 308, 6-(1-(1-(2-methoxyethyl)azepan-4-yl)piperidin-4-yl)-1,4-dimethyl-2-(4-(methylsulfonyl)phenyl)-1H-benzo[d]imidazole], the IC50 on human TLR9 (setting [1]) is 6.7 nM; against human TLR9 (setting [3]), 6.7 nM; at human TLR7, 2.6 µM; on human TLR8, greater than 50 µM.

As to `CC(C)CN1C2CCC1CC(N1CCC(c3cc(F)c4c(c3)nc(-c3ccc(S(C)(=O)=O)cc3)n4C)CC1)C2` (stereo not drawn) [Example 209, 7-fluoro-5-(1-(8-isobutyl-8-azabicyclo[3.2.1]octan-3-yl)piperidin-4-yl)-1-methyl-2-(4-(methylsulfonyl)phenyl)-1H-benzo[d]imidazole], the IC50 came out at 81 nM on human TLR9, 81 nM on human TLR9 (setting [1]), 16.7 µM at human TLR7 and 16.7 µM at human TLR8.

For `Cn1c(-c2ccc(S(C)(=O)=O)cc2)nc2cc(C3CCN(C4CC5CCC(C4)N5C4COC4)CC3)c(F)cc21` (single isomer, unassigned) [Example 253, 6-fluoro-1-methyl-2-(4-(methylsulfonyl)phenyl)-5-(1-(8-(oxetan-3-yl)-8-azabicyclo[3.2.1]octan-3-yl)piperidin-4-yl)-1H-benzo[d]imidazole], the IC50 was 280 nM against human TLR9, 278 nM on human TLR9 (setting [1]), greater than 50 µM on human TLR7 and greater than 50 µM at human TLR8.

Consider `Cn1c(-c2ccc(S(C)(=O)=O)cc2)nc2c(F)c(C3CCN(C4CC5CCC(C4)N5CC4CC4)CC3)ccc21` (single isomer, unassigned) [Example 191, 5-(1-(8-(cyclopropylmethyl)-8-azabicyclo[3.2.1]octan-3-yl)piperidin-4-yl)-4-fluoro-1-methyl-2-(4-(methylsulfonyl)phenyl)-1H-benzo[d]imidazole], for which the IC50 against human TLR9 is 96 nM; at human TLR9 (setting [1]), 96 nM; on human TLR7 it was 3.8 µM; on human TLR8 it was greater than 50 µM.

On to `COCCN1C2CCC1CC(N1CCC(c3cc(F)c4nc(-c5ccc(S(C)(=O)=O)cc5)n(C)c4c3)CC1)C2` (single isomer, unassigned) [Example 290, 4-fluoro-6-(1-(8-(2-methoxyethyl)-8-azabicyclo[3.2.1]octan-3-yl)piperidin-4-yl)-1-methyl-2-(4-(methylsulfonyl)phenyl)-1H-benzo[d]imidazole], for which the IC50 is 144 nM on human TLR9 (setting [1]), 150 nM against human TLR9 (setting [3]), 22.2 µM at human TLR7 and greater than 50 µM at human TLR8.

These data come from patent publication US12492188B2, “1H-benzo[D]imidazole derivatives as TLR9 inhibitors for the treatment of fibrosis” (BRISTOL-MYERS SQUIBB COMPANY, priority 2020, dated 2025).
